# Where two headings read alike, the source gives them in different places. Where no end group is shown, it is not given here.
# Tests used:
# Type in all cases: cell-based, human
# [1] = test system: memory CD8 T cells from convalescent COVID-19 patients
# [2] = test system: memory CD8+ T cells specific for A*02:01 epitopes; conditions: Allele A02
# [3] = test system: naïve CD8 T cells isolated from healthy donors; conditions: 10 days of expansion; tetramer staining; FIG. 14, FIG. 15
Sequence,% of Pts (Screen M+ 2SD) ([1]; Allele A01),% of Pts (Tetramer) [2],other results
DTDFVNEFY [DTD],40%,–,–
LLLDRLNQL [LLL],–,22.2%,% of Pts (Screen M+ 2SD) ([1]; Allele A02): 33.3%
LLYDANYFL [LLY],–,55.6%,–
NTCDGTTFTY [NTC],60%,–,–
YLQPRTFLL [YLQ],–,–,expansion of peptide-specific T cells from the naïve T cell population [3]: induces an expansion of peptide-specific T cells

# From US20230398205A1, “SARS-COV-2 IMMU[…] CONSTRUCTS AND USES THEREOF” (TScan Therapeutics, Inc., priority 2020, published 2023)
